Laboratory results from patent US20120251442A1, “Methods for Treatment of Tumors by Direct Administration of a Radioisotope” (GABRIEL INSTITUTE, INC., priority 2007, published 2012).

Assay: Radioisotope delivered into a drilled hole in the femur, tissue counting at two hours
Type: in vivo, Sprague Dawley rat
Description: A miniature drill was used to create a hole in the femur of an anesthetized Sprague Dawley rat. A miniature pump was used to deliver 3 μL of this Ho-166 composition into the hole created by the drill.
Two hours after the injection of the dose the rat was sacrificed and dissected. Tissues/organs excised and counted included bone (opposite femur), liver, kidneys, spleen, muscle, blood, heart, lung, pancreas as well as the injected femur. Counting was done by the use of a NaI gamma detector to determine the presence of radioactivity.
The amount of activity found in the site of injection was 92% of the injected dose. Less than 2% of the dose was found in the liver or in the rest of the bone. Total skeletal dose was determined by multiplying the % dose in the opposite femur by 25.
Ho-166 in 0.1M HCl was obtained from MURR. The pH was measured with pH paper showing a pH of about 1. The miniature drill described above in Example 6 was used to create a hole in the femur of an anesthetized Sprague Dawley rat. The miniature pump described above was used to deliver 3 μL of Ho-166 solution into the hole created by the drill. Two hours after the injection of the dose the rat was sacrificed and dissected. The amount of activity found in the site of injection was 5% of the injected dose. However 52% of the dose was found in the liver and 23% of the dose was found in the rest of the bone. Total skeletal dose was determined by multiplying the % dose in the opposite femur by 25.
The miniature drill described in Example 6 was used to create a hole in the femur of an anesthetized Sprague Dawley rat. The miniature pump described in Example 6 was used to deliver 2 μL of Sm-153-DOTMP solution into the hole created by the drill. Two hours after the injection of the dose the rat was sacrificed and dissected. The amount of activity found in the site of injection was 9% of the injected dose. None of the radioactivity was found in the liver and about 20% was found in the rest of the bone. Total skeletal dose was determined by multiplying the % dose in the opposite femur by 25. An average of 65% of the injected dose was found in the urine.

[1] = two hours after injection into femur hole

For O=P([O-])(O)CN1CCN(CP(=O)([O-])O)CCN(CP(=O)(O)O)CCN(CP(=O)([O-])O)CC1.[153Sm+3] [Sm-153-DOTMP], the “Activity found in the site of injection, % of the injected dose” value [1] was 9%, the “Dose found in the liver” value [1] was “None” and the “Injected dose found in the urine” value [1] was 65%. The “Dose found in the rest of the bone” value (two hours after injection, % dose in opposite femur multiplied by 25) was “about 20%”.
